Consider six molecules from patent US20240158446A1, “CYCLIC COMPOUND HAVING SELECTIVE INHIBITORY ACTION ON KRAS OVER HRAS AND NRAS” (CHUGAI SEIYAKU KABUSHIKI KAISHA, priority 2021, published 2024).

In assay [1] the target is GDP-bound KRAS wild-type protein (Homo sapiens, UniProt P01116). The experiment in a line: Binding to KRAS by surface plasmon resonance (SPR), Single Cycle Kinetics. The settings on record: GDP-bound KRAS wild-type protein, read-out: KRAS KD.
Assay [2] concerns the target GDP-bound NRAS wild-type protein (Homo sapiens, UniProt P01111). The experiment in a line: Binding to NRAS by surface plasmon resonance (SPR), Single Cycle Kinetics. Particulars: for NRAS/KRAS (ratio of KD value with respect to GDP-bound NRAS wild-type protein to KD value with respect to KRAS): SPR KD ratio NRAS/KRAS, class symbols.
Assay [3] has as its target GDP-bound HRAS wild-type protein (Homo sapiens, UniProt P01112). The experiment in a line: Binding to HRAS by surface plasmon resonance (SPR), Single Cycle Kinetics. Particulars: for HRAS/KRAS (ratio of KD value with respect to GDP-bound HRAS wild-type protein to KD value with respect to KRAS): SPR KD ratio HRAS/KRAS, class symbols.
Setting [4] is: SPR Single Cycle Kinetics, 1:1 binding model.
The mark [5] stands for this setting: SPR, GDP-bound NRAS wild-type protein vs GDP-bound KRAS wild-type protein.
Where [6] appears, read: SPR, GDP-bound HRAS wild-type protein vs GDP-bound KRAS wild-type protein.

pKd: −log10 of the molar value. Where two headings read alike, the source gives them in different places. Where a SMILES comes first, the peptide text is derived from it. Bridges are numbered along the chain shown (N, C = ends). [ ]: non-standard residue; d: D form. hPhe(3-Cl-4-CF3) = N[C@@H](CCc1ccc(C(F)(F)F)c(Cl)c1)C(=O)O; NPrPhe(4-CF3) = CCCN[C@@H](Cc1ccc(C(F)(F)F)cc1)C(=O)O; NMeGly(cPent) = CN[C@H](C(=O)O)C1CCCC1; Hyp = O=C(O)[C@@H]1C[C@@H](O)CN1; NMeD = CN[C@@H](CC(=O)O)C(=O)O; NMeL = CN[C@@H](CC(C)C)C(=O)O; Ac5c = NC1(C(=O)O)CCCC1; Sar = CNCC(=O)O

Chain of GDP-bound HRAS wild-type protein (P01112 whole entry): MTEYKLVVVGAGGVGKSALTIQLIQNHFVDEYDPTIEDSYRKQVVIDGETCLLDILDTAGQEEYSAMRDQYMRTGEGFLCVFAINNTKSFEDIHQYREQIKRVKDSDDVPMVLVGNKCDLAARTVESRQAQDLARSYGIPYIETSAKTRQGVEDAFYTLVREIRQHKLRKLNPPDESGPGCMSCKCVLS
Chain of GDP-bound KRAS wild-type protein (P01116 whole entry): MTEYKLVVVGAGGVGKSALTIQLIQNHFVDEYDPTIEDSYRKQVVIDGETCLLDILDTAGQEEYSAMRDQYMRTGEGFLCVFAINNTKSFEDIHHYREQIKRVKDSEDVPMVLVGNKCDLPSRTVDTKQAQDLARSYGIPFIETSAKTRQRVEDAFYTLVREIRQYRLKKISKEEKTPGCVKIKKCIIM
Chain of GDP-bound NRAS wild-type protein (P01111 whole entry): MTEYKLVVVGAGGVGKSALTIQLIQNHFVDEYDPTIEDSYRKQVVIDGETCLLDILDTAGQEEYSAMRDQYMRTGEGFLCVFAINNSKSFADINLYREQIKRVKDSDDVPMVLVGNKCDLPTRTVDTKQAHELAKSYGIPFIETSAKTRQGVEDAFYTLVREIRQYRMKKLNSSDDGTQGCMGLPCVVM

Broadly, the pKd is the negative decadic logarithm of the Kd, by convention in mol/L. For the molecule `CCCN1C(=O)CN(C)C(=O)CNC(=O)[C@H]([C@@H](C)CC)NC(=O)[C@H](CC(C)C)N(C)C(=O)C[C@@H](C(=O)N(C)C)N(C)C(=O)[C@H](C2CCCC2)N(C)C(=O)C2(CCCC2)NC(=O)[C@@H]2C[C@@H](OCC)CN2C(=O)[C@H](CCc2ccc(C(F)(F)F)c(Cl)c2)NC(=O)CN(C)C(=O)[C@@H]1Cc1ccc(C(F)(F)F)cc1` [PP0421] ([NMeL]IG[Sar][NPrPhe(4-CF3)][Sar][hPhe(3-Cl-4-CF3)][Hyp](Et)[Ac5c][NMeGly(cPent)][NMeD]-NMe2; lactam N-11), in assay [1] (setting [4]), the pKd is 10.48. Moreover, the “NRAS/KRAS (ratio of KD value with respect to NRAS to KD value with respect to KRAS)” value in assay [2] (setting [5]) was “B (a compound having 3 or more and less than 10 is denoted as B)”. The “HRAS/KRAS (ratio of KD value with respect to HRAS to KD value with respect to KRAS)” value in assay [3] (setting [6]) is “C (A compound having a KD ratio of 0.1 or more and less than 3 is denoted as C)”.
Take `CCO[C@@H]1C[C@H]2C(=O)NC3(CC(C)(C)C3)C(=O)N(C)[C@@H](CC(C)(C)C)C(=O)N(C)[C@H](C(=O)N(C)C)CC(=O)N(C)[C@@H](C(C)C)C(=O)N[C@@H]([C@@H](C)CC)C(=O)N(C)CC(=O)N(C)[C@H]3C/C=C\CCN(C3=O)[C@@H](Cc3ccc(C(F)(F)F)cc3)C(=O)N(C)CC(=O)N[C@@H](CCc3ccc(C(F)(F)F)c(OC)c3)C(=O)N2C1` [PP2773]: the pKd in assay [1] (setting [4]) was 9.28. In addition, in assay [2], the “NRAS/KRAS (ratio of KD value with respect to GDP-bound NRAS wild-type protein to KD value with respect to KRAS)” value was “B (a compound having 3 or more and less than 10 is denoted as B)”. In addition, the “HRAS/KRAS (ratio of KD value with respect to GDP-bound HRAS wild-type protein to KD value with respect to KRAS)” value in assay [3] was “B (a compound having 3 or more and less than 10 is denoted as B)”.
For the molecule `CCC[C@H]1C(=O)N[C@@H]([C@@H](C)CC)C(=O)N(C)CC(=O)N(C)[C@H]2C/C=C\CCN(C2=O)[C@@H](Cc2ccc(C(F)(F)F)cc2)C(=O)N(C)CC(=O)N[C@@H](CCc2ccc(Cl)c(OC)c2)C(=O)N2C[C@H](OCC)C[C@H]2C(=O)NC2(CC(C)(C)C2)C(=O)N(C)[C@@H](C(CC)CC)C(=O)N(C)[C@H](C(=O)N(C)C)CC(=O)N1C` [PP2789], the pKd in assay [1] (setting [4]) is 9.00. For the same molecule, the “NRAS/KRAS (ratio of KD value with respect to GDP-bound NRAS wild-type protein to KD value with respect to KRAS)” value in assay [2] is given as “AA (a compound having 20 or more is denoted as AA)”. In addition, the “HRAS/KRAS (ratio of KD value with respect to GDP-bound HRAS wild-type protein to KD value with respect to KRAS)” value in assay [3] is “A (a compound having 10 or more and less than 20 is denoted as A)”.
In the case of `CCO[C@@H]1C[C@H]2C(=O)NC3(CCC3)C(=O)N(C)[C@@H](C3CCCC3)C(=O)N(C)[C@H](C)CC(=O)N(C)[C@@H](CC(C)C)C(=O)N[C@@H]([C@@H](C)CC)C(=O)N(C)CC(=O)N(C)[C@H]3C/C=C\CCN(C3=O)[C@@H](Cc3ccc(C)cc3)C(=O)N(C)CC(=O)N[C@@H](CCc3cc(F)c(C(F)(F)F)c(F)c3)C(=O)N2C1` [PP1417], the pKd in assay [1] (SPR, Single Cycle Kinetics, 1:1 binding model) is 9.59. Moreover, in assay [2] (SPR, GDP-bound NRAS wild-type protein vs GDP-bound KRAS wild-type protein, KD ratio class), the “NRAS/KRAS (ratio of KD value for NRAS to KD value for KRAS)” value is “B (a compound having 3 or more and less than 10 is denoted as B)”. In addition, the “HRAS/KRAS (ratio of KD value for HRAS to KD value for KRAS)” value in assay [3] (SPR, GDP-bound HRAS wild-type protein vs GDP-bound KRAS wild-type protein, KD ratio class) is “B (a compound having 3 or more and less than 10 is denoted as B)”.
On to `CCO[C@@H]1C[C@H]2C(=O)NC3(CCC3)C(=O)N(C)[C@@H](C3CCCC3)C(=O)N(C)[C@H](C(=O)N(C)C)CC(=O)N(C)[C@@H](Cc3cccc(Cl)c3)C(=O)N[C@@H]([C@@H](C)CC)C(=O)N(C)CC(=O)N(C)[C@H]3CCCCCN(C3=O)[C@@H](Cc3ccc(C(F)(F)F)cc3)C(=O)N(C)CC(=O)N[C@@H](CCc3cc(F)c(C(F)(F)F)c(F)c3)C(=O)N2C1` [PP0939], for which the negative-log Kd (pKd) in assay [1] (SPR, Single Cycle Kinetics) is 9.04. The “NRAS/KRAS (ratio of KD value for NRAS to KD value for KRAS)” value in assay [2] (setting [5]) is “B (a compound having 3 or more and less than 10 is denoted as B)”. Also, in assay [3] (setting [6]), the “HRAS/KRAS (ratio of KD value for HRAS to KD value for KRAS)” value was “B (a compound having 3 or more and less than 10 is denoted as B)”.
As for `CCC[C@H]1C(=O)N[C@@H]([C@@H](C)CC)C(=O)N(C)CC(=O)N(C)[C@H]2C/C=C\CCN(C2=O)[C@@H](Cc2ccc(C)cc2)C(=O)N(C)CC(=O)N[C@@H](CCc2ccc(C(F)(F)F)c(Cl)c2)C(=O)N2C[C@H](OCC)C[C@H]2C(=O)NC2(CC(C)(C)C2)C(=O)N(C)[C@@H](CC(C)C)C(=O)N(C)[C@H](C(=O)N(C)C)CC(=O)N1C` [PP2224], the pKd in assay [1] (SPR, Single Cycle Kinetics) is 9.42. Further, the “NRAS/KRAS (ratio of KD value for NRAS to KD value for KRAS)” value in assay [2] (setting [5]) is “A (a compound having 10 or more and less than 20 is denoted as A)”. In assay [3] (setting [6]), the “HRAS/KRAS (ratio of KD value for HRAS to KD value for KRAS)” value is “A (a compound having 10 or more and less than 20 is denoted as A)”.
